Tests used:
[1] = test system: myostatin gene expression; assay: Measurement of myostatin expression in C2Cl2 (qPCR); assay type: cell-based, Mouse; conditions: for inhibition of the expression of myostatin: C2Cl2 cells, Table 1, 0.5 μm; for percentage of myostatin gene expression in cells in contact with the molecules related to the expression in the control cells: concentration of the compound 0.5 μm, 6 h, active if less than or close to 70%
Experimental: C2Cl2 myoblastic cells (ATCC CRL-1772) are seeded in 24-well plates at the density of 30,000 cells per well and cultured in DMEM (Dulbecco's Modified Eagle Medium) medium containing glucose at 4.5 g/L and supplemented with fetal calf serum (10%) and antibiotics (penicillin and streptomycin). […] The cells are then placed in a glucose-depleted medium (DMEM containing 1 g/L of glucose) and devoid of serum in the presence of the test molecules or references (IGF-1 at a concentration of 100 ng/ml) for 6 h. At the end of the experiment, messenger RNAs (mRNAs) are extracted using standard phenol and chloroform methodology. Briefly, the cells are lysed in a solution of trizol (Sigma T9424) containing a strong acid and phenol. The mRNAs are separated from the proteins by the addition of chloroform followed by centrifugation. They are then precipitated in isopropanol and then suspended at the concentration of 1 μg/μL in ultra-pure water free of RNA and DNA. 1 μg of mRNA is then converted by retro-transcription into complementary DNA by the AMV enzyme in the presence a primer and a mixture of nucleotides according to the protocol given by the supplier (Applied Biosystems 4368814). […] QPCRs are performed on a 79001-IT Fast Real-Time PCR detection system (Applied Biosystems). The programming conditions are standard and consist of 1 cycle at 95° C. for 15 min, followed by 40 cycles at 95° C. for 15 sec and 60° C. for 1 min and finalized with a melt curve step at 60° C. and 95° C. The analyzed samples all contain 100 ng of cDNA, a qPCR buffer including the enzyme, the mixture of oligonucleotides and the intercalating SYBR green, and the pair of specific primers of the gene being studied, strategically chosen between two exon sequences and at a final concentration of 200 nM. Fluorescent probes bind to the double-stranded. DNA and fluoresce only once attached to the DNA. A fluorescence threshold is established by the program of the machine. When the amount of DNA allows the fluorescent probe to exceed this threshold, a PCR cycle number called “Ct” is obtained for “cycle threshold” or cycle threshold. It is this value that is the basis of the calculations to quantify the DNA in a relative fashion. A ratio R is set between the amount of the starting DNA in a sample and that of a control, which has not been treated (i.e., R=2^−(Ct Sample−Ct Control)) and this measurement will be compared to that of a household gene known to be unmodulated by the treatment (or R=2^−NRCt).
The primers used are recorded in the following table: […]
For the effects on myostatin expression, the results are expressed as a percentage of myostatin gene expression in cells in contact with the molecules related to the expression in the control cells. The product is supposed to be active if this ratio is less than or close to 70%, the average, value of IGF-1 found at the concentration of 100 ng/mL in this test, considered as reference.

C2Cl2 cells = assay: Evaluation of muscle fiber diameter; assay type: cell-based; conditions: vs vehicle control
Experimental: The C2Cl2 myoblastic cells (ATCC CRL-1772) were seeded into glycerol-treated 8-well plates at a density of 10,000 cells per well and cultured in a DMEM medium containing glucose at 4.5 g/L and supplemented with fetal calf serum (10%) and antibiotics (penicillin and streptomycin).
The cells are then placed in a glucose-depleted medium (DMEM containing 1 g/L of glucose) and devoid of serum in the presence of the test molecules or references (IGF-1 at the concentration of 10 ng/mL or dexamethasone 10 nM) for 3 days. At the end of the culture, the cells are rinsed and fixed with 2.5% glutaraldehyde/0.1% Triton solution for 1 hour at room temperature. The cell layer is covered with DAPI (fluorescent labeling of the cell nucleus). After storage in the dark for 16 hours in the cold, the slides are observed under a fluorescence microscope (Carl Zeiss, AxioVert 200) and the images are analyzed using the Axiovision 4.1 software to measure the diameter of the fibers.
C2Cl2 cells are differentiated and treated with compound 1 for the last three days of differentiation.

muscle cells = assay: Protein synthesis (via phosphorylation of S6K1) in muscle cells; assay type: cell-based; conditions: for Protein Synthesis (percentage increase in 56K phosphorylation in muscle cells): significant when greater than 120%
Experimental: The cells are counted and seeded at a density of […] cells per well in a 24-well plate in a DMEM medium containing glucose at 4.5 g/L and supplemented with fetal calf serum (10%) and antibiotics (penicillin and streptomycin). […] The cells are then placed in a medium without glucose or leucine (Krebs medium) for 1 hour at 37° C., and then incubated for 2 hours and 30 minutes in the presence of the test products or reference, (IGF-1, 100 ng/ml) in serum-free DMEM medium containing radiolabeled leucine 2.5 μCi/mL. At the end of the incubation, the supernatants are removed and the cells are lysed in a 0.1N NaOH solution for 30 min. The radioactivity is measured in the cell fraction and the total protein amount is determined by Lowry assay. Each condition is evaluated at a minimum of n=6; IGF-1, 100 ng/mL is our control to stimulate protein synthesis. The results are expressed in cpm/μg of proteins after 2.5 hours of incubation or as a percentage with respect to the control condition.
For the effects on protein synthesis, the results are expressed as a percentage increase in 56K phosphorylation in muscle cells. This percentage is considered significant when it is greater than 120%, the observed average value of IGF-1 at the concentration of 100 ng/mL in this test, considered as reference.

Molecule | inhibition of the expression of myostatin [1] | percentage of myostatin gene expression in cells in contact with the molecules related to the expression in the control cells [1] [%] | diameter of the myotubes (muscle fiber diameter, FIG. 1) (C2Cl2 cells; compound 1 at 10 μM, last three days of differentiation) | Protein Synthesis (percentage increase in 56K phosphorylation in muscle cells) (muscle cells; 0.5 μm) [%] | Protein Synthesis (percentage increase in 56K phosphorylation in muscle cells) (muscle cells; 5 μm) [%] | Protein Synthesis (percentage increase in 56K phosphorylation in muscle cells) (muscle cells; 50 μm) [%] | protein synthesis in muscle cells (muscle cells; concentration of 0.5 μM) | percentage of myostatin gene expression related to control cells, average value of reference ([1]; IGF-1 at 100 ng/mL) [%] | diameter of myotubes (muscle fiber diameter, FIG. 1) (C2Cl2 cells; IGF1 at 10 ng/ml, 3 days) | Protein synthesis, observed average value of reference (muscle cells; IGF-1 at 100 ng/mL) [%]
CCON=C(CCC(=O)O)c1ccc(Cl)c(Cl)c1 [Compound 1, 4-(3,4-dichlorophenyl)-4-ethoxyimino-butanoic acid] | significantly inhibit | 71 | significantly increased | 134 | 142 | 151 | significantly increases | – | – | –
IGF-1: reference used to inhibit myostatin expression, stimulate protein synthesis and increase myotube diameter [reference compound] | – | – | – | – | – | – | – | 70 | significantly increases | 120
CCON=C(CCC(=O)OC(C)C)c1ccc(Cl)c(Cl)c1 [Compound 3, Isopropyl acid 4-(3,4-dichlorophenyl)-4-ethoxyimino-butanoate] | significantly inhibit | 41 | – | – | – | – | – | – | – | –

Reference: patent US10350184B2, “Derivatives used in the treatment of muscle atrophy” (METABRAIN RESEARCH, priority 2015, dated 2019)
